According to US10947252B2, “Inhibitors of KEAP1-Nrf2 protein-protein interaction” (Janssen Pharmaceutica NV, priority 2018, dated 2021):

Legend:
[1] = target: Kelch domain of human KEAP1 (321-624 aa) (Homo sapiens (Human), UniProt Q14145); test: KEAP1 KELCH ThermoFluor binding assay; conditions: KEAP Kelch […], 1,8-ANS, pH 7.0, average of results obtained, read-out: Tf Kd;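 further: Ligand-induced melting temperature shift of E. coli-expressed KEAP1 Kelch protein, Kd estimated from concentration-response curves of ΔTm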
[2] = test system: Glo-Response ARE-luc2P HEK293 cell line; test: ARE luciferase reporter cell-based assay; conditions: Homo sapiens, HEK293, 24 h, average of results obtained;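 further: luciferase signal tracks Nrf2 activation of the ARE once compounds disrupt KEAP1-Nrf2 binding, read with One-Glo reagent, DMSO serving as low control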

Chain of Kelch domain of human KEAP1 (321-624 aa) (Q14145 321-624): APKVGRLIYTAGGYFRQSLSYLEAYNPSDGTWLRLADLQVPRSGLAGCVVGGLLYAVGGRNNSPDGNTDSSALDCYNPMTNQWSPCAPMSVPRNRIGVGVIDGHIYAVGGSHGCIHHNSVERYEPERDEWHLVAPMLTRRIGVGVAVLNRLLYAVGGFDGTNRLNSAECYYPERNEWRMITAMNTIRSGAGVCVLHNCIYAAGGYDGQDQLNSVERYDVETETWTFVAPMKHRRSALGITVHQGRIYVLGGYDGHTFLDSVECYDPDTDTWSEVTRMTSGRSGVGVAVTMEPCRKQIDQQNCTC

| Kd [1] [nM] | Structure (SMILES) | EC50 [2] [nM] |
| --- | --- | --- |
| 0.34 | Cc1ccc(C(CC(=O)O)c2ccc3c(nnn3CC3CC3)c2C)cc1CN1CC2(COC2)Oc2ncccc2S1(=O)=O (centres unmarked) [Example 67] | 23 |
| 1.8 | CCn1nnc2c(C)c([C@@H](CC(=O)O)c3ccc(C)c(CN4CC5(COC5)Oc5ncccc5S4(=O)=O)n3)ccc21 (single isomer, unassigned) [Example 242, (*R)-3-(6-((1′,1′-Dioxidospiro[oxetane-3,4′-pyrido[2,3-b][1,4,5]oxathiazepin]-2′(3′H)-yl)methyl)-5-methylpyridin-2-yl)-3-(1-ethyl-4-methyl-1H-benzo[d][1,2,3]triazol-5-yl)propanoic Acid] | 110 |
| < 1 | Cc1ccc([C@@H](c2ccc3c(nnn3CC3CC3)c2C)C(C)(C)C(=O)O)nc1CN1CC2(CCOCC2)Oc2nc(OCCN3CCOCC3)ccc2S1(=O)=O (single isomer, unassigned) [Example 328, (*S)-3-(1-(Cyclopropylmethyl)-4-methyl-1H-benzo[d][1,2,3]triazol-5-yl)-2,2-dimethyl-3-(5-methyl-6-((7′-(2-morpholinoethoxy)-1′,1′-dioxido-2,3,5,6-tetrahydrospiro[pyran-4,4′-pyrido[2,3-b][1,4,5]oxathiazepin]-2′(3′H)-yl)methyl)pyridin-2-yl)propanoic Acid] | 3.3 |
| < 1 | CC[C@@H]1CN(Cc2nc(C(CC(=O)O)c3ccc4c(nnn4C4CC4)c3C)ccc2C)S(=O)(=O)c2cccnc2O1 (mixture of isomers) [Example 174, (R/S)-3-(1-Cyclopropyl-4-methyl-1H-benzo[d][1,2,3]triazol-5-yl)-3-(6-(((R)-4-ethyl-1,1-dioxido-3,4-dihydro-2H-pyrido[2,3-b][1,4,5]oxathiazepin-2-yl)methyl)-5-methylpyridin-2-yl)propanoic Acid] | 15 |
| < 1 | Cc1ccc([C@@H](c2ccn3c(C(F)(F)F)nnc3c2C)C(C)(C)C(=O)O)cc1CN1CC2(CC2)Oc2nc(OCCN3CCCC3)c(C)cc2S1(=O)=O (single isomer, unassigned) [Example 373, (*S)-2,2-Dimethyl-3-(4-methyl-3-((8′-methyl-1′,1′-dioxido-7′-(2-(pyrrolidin-1-yl)ethoxy)spiro[cyclopropane-1,4′-pyrido[2,3-b][1,4,5]oxathiazepin]-2′(3′H)-yl)methyl)phenyl)-3-(8-methyl-3-(trifluoromethyl)-[1,2,4]triazolo[4,3-a]pyridine-7-yl)propanoic Acid] | 5.4 |
| 2.4 | CCn1nnc2c(C)c(C(c3cnc(C)c(CN4CC5(CCOCC5)Oc5ncccc5S4(=O)=O)c3)C(C)(C)C(=O)O)ccc21 (racemic) [Example 58, (R/S)-3-(5-((1′,1′-Dioxido-2,3,5,6-tetrahydrospiro[pyran-4,4′-pyrido[2,3-b][1,4,5]oxathiazepin]-2′(3′H)-yl)methyl)-6-methylpyridin-3-yl)-3-(1-ethyl-4-methyl-1H-benzo[d][1,2,3]triazol-5-yl)-2,2-dimethylpropanoic Acid] | 226 |
| < 1 | Cc1ccc([C@H](CC(=O)O)c2ccc3c(nnn3CC3CC3)c2C)cc1CN1C[C@@H]2CCCCN2c2ncccc2S1(=O)=O (single isomer, unassigned) [Example 232, (*S)-3-(1-(Cyclopropylmethyl)-4-methyl-1H-benzo[d][1,2,3]triazol-5-yl)-3-(3-(((*S)-5,5-dioxido-7,7a,8,9,10,11-hexahydro-6H-dipyrido[2,1-d:2′,3′-f][1,2,5]thiadiazepin-6-yl)methyl)-4-methylphenyl)propanoic Acid] | 2.6 |

Second part, the compound before the results:

| Structure (SMILES) | Kd [1] [nM] | EC50 [2] [nM] |
| --- | --- | --- |
| Cc1cnc2c(c1)S(=O)(=O)N(Cc1cc([C@H](c3ccn4c(C(F)(F)F)nnc4c3C)C(C)(C)C(=O)O)cnc1C)CC1(CCOCC1)O2 (single isomer, unassigned) [Example 585, (*S)-2,2-Dimethyl-3-(8-methyl-3-(trifluoromethyl)-[1,2,4]triazolo[4,3-a]pyridin-7-yl)-3-(6-methyl-5-((8′-methyl-1′,1′-dioxido-2,3,5,6-tetrahydrospiro[pyran-4,4′-pyrido[2,3-b][1,4,5]oxathiazepin]-2′(3′H)-yl)methyl)pyridin-3-yl)propanoic Acid] | < 1 | 253 |
| Cc1ccc(C(CC(=O)O)c2ccc3c(nnn3CC3CC3)c2C(F)F)cc1CN1CC2CCCN2c2ncccc2S1(=O)=O (centres unmarked) [Example 65] | 2.5 | 360 |
| Cc1ccc(C(CC(=O)O)c2ccc3c(nnn3C3CC3)c2C)cc1CN1C[C@@H]2COCCN2c2ncccc2S1(=O)=O (stereo in doubt) [Example 23, 3-(1-Cyclopropyl-4-methyl-1H-benzo[d][1,2,3]triazol-5-yl)-3-(3-(((*R)-5,5-dioxido-7a,8,10,11-tetrahydro-[1,4]oxazino[3,4-d]pyrido[2,3-f][1,2,5]thiadiazepin-6(7H)-yl)methyl)-4-methylphenyl)propanoic Acid] | 0.278 | 8.3 |
| Cc1ccc([C@@H](CC(=O)O)c2ccn3c(C(F)F)nnc3c2C)cc1CN1CC2(CC2)Oc2ncc(F)cc2S1(=O)=O (single isomer, unassigned) [Example 528, (*R)-3-(3-(Difluoromethyl)-8-methyl-[1,2,4]triazolo[4,3-a]pyridin-7-yl)-3-(3-((8′-fluoro-1′,1′-dioxidospiro[cyclopropane-1,4′-pyrido[2,3-b][1,4,5]oxathiazepin]-2′(3′H)-yl)methyl)-4-methylphenyl)propanoic Acid] | < 1 | 236 |
| Cc1cc2cc(C(CC(=O)O)c3ccc(C)c(CN4C[C@@H]5CCCCN5c5ncccc5S4(=O)=O)c3)n(C)c2nn1 (mixture of isomers) [Example 440, 3-(3,7-Dimethyl-7H-pyrrolo[2,3-c]pyridazin-6-yl)-3-(3-(((S)-5,5-dioxido-7,7a,8,9,10,11-hexahydro-6H-dipyrido[2,1-d:2′,3′-f][1,2,5]thiadiazepin-6-yl)methyl)-4-methylphenyl)propanoic Acid] | < 1 | 714 |
| Cc1ccc(C(CC(=O)O)c2ccn3c(C(F)(F)F)nnc3c2C)cc1CN1C[C@H]2CCCN2c2ncccc2S1(=O)=O (stereo partly drawn) [Example 264, 3-(3-(((R)-5,5-Dioxido-7a,8,9,10-tetrahydropyrido[2,3-f]pyrrolo[2,1-d][1,2,5]thiadiazepin-6(7H)-yl)methyl)-4-methylphenyl)-3-(8-methyl-3-(trifluoromethyl)-[1,2,4]triazolo[4,3-a]pyridin-7-yl)propanoic Acid] | < 1 | 18.3 |
| Cc1ccc([C@@H](c2ccn3c(C(F)(F)F)nnc3c2C)C(C)(C)C(=O)O)cc1CN1CC(C)(C)Oc2ncccc2S1(=O)=O (single isomer, unassigned) [Example 430, (*S)-3-(3-((4,4-dimethyl-1,1-dioxido-3,4-dihydro-2H-pyrido[2,3-b][1,4,5]oxathiazepin-2-yl)methyl)-4-methylphenyl)-2,2-dimethyl-3-(8-methyl-3-(trifluoromethyl)-[1,2,4]triazolo[4,3-a]pyridin-7-yl)propanoic Acid] | 7830 | 647 |
| Cc1ccc([C@@H](CC(=O)O)c2ccn3c(C(F)(F)F)nnc3c2C)cc1CN1C[C@@H]2CCCCN2c2ncccc2S1(=O)=O (single isomer, unassigned) [Example 291, (*R)-3-(3-(((*S)-5,5-Dioxido-7,7a,8,9,10,11-hexahydro-6H-dipyrido[2,1-d:2′,3′-][1,2,5]thiadiazepin-6-yl)methyl)-4-methylphenyl)-3-(8-methyl-3-(trifluoromethyl)-[1,2,4]triazolo[4,3-a]pyridin-7-yl)propanoic Acid] | < 1 | 86.8 |
| Cc1ccc([C@H](CC(=O)O)c2ccn3c(C(F)(F)F)nnc3c2C)nc1CN1C[C@H]2CCCCN2c2ncc(C#N)cc2S1(=O)=O (single isomer, unassigned) [Example 36, (*R)-3-(6-(((*R)-3-Cyano-5,5-dioxido-7,7a,8,9,10,11-hexahydro-6H-dipyrido[2,1-d:2′,3′-f][1,2,5]thiadiazepin-6-yl)methyl)-5-methylpyridin-2-yl)-3-(8-methyl-3-(trifluoromethyl)-[1,2,4]triazolo[4,3-a]pyridin-7-yl)propanoic Acid] | < 1 | 15.2 |
| Cc1cc2cc([C@@H](CC(=O)O)c3ccc(C)c(CN4C[C@H]5CCCCN5c5ncccc5S4(=O)=O)c3)n(C)c2nn1 (single isomer, unassigned) [Example 444, (*S)-3-(3,7-Dimethyl-7H-pyrrolo[2,3-c]pyridazin-6-yl)-3-(3-(((*R)-5,5-dioxido-7,7a,8,9,10,11-hexahydro-6H-dipyrido[2,1-d:2′,3′-f][1,2,5]thiadiazepin-6-yl)methyl)-4-methylphenyl)propanoic Acid] | 21.3 | > 20000 |
| Cc1ccc([C@H](CC(=O)O)c2ccc3c(nnn3CC3CC3)c2C)cc1CN1C[C@H]2CCCN2c2ncccc2S1(=O)=O (single isomer, unassigned) [Example 402, (*S)-3-(1-(Cyclopropylmethyl)-4-methyl-1H-benzo[d][1,2,3]triazol-5-yl)-3-(3-(((R)-5,5-dioxido-7a,8,9,10-tetrahydropyrido[2,3-f]pyrrolo[2,1-d][1,2,5]thiadiazepin-6(7H)-yl)methyl)-4-methylphenyl)propanoic Acid] | < 1 | 27.9 |
| Cc1ccc([C@H](c2ccn3c(C(F)(F)F)nnc3c2C)C(C)(C)C(=O)O)cc1CN1C[C@@]2(CCOC2)Oc2ncccc2S1(=O)=O (single isomer, unassigned) [Example 386, (*R)-3-(3-(((*R)-1′,1′-Dioxido-4,5-dihydro-2H-spiro[furan-3,4′-pyrido[2,3-b][1,4,5]oxathiazepin]-2′(3′H)-yl)methyl)-4-methylphenyl)-2,2-dimethyl-3-(8-methyl-3-(trifluoromethyl)-[1,2,4]triazolo[4,3-a]pyridin-7-yl)propanoic Acid] | 1060 | 343 |
